In ChEMBL document CHEMBL1158911, “Isolation and Structure Determination of Inostamycin, a Novel Inhibitor of Phosphatidylinositol Turnover” (J Nat Prod, 1990):
Values after ≈ are worked out from the molar mass of the structure shown. Active and inactive are the calls of the source. The calls are words filed in the database; no cut-off is given here.

Tested on: A-431
Assay: Inhibition of EGF-induced [3H]inositol incorporation in to phosphatidylinositol in human A431 cells after 60 mins by liquid scintillation spectrophotometry
Format: functional, cell-based

CC[C@@H](C(=O)[C@@H](C)[C@@H](O)[C@@H](C)[C@H]1O[C@@H](CC(=O)OO)[C@H](C)C[C@@H]1C)[C@H]1O[C@](C)([C@]2(O)O[C@](CC)([C@@H](O)CC)C[C@H]2C)C[C@@H]1C
Activity: Active

CCC[C@H](O)[C@@]1(CC)C[C@@H](C)[C@](O)([C@]2(C)C[C@H](C)[C@@H]([C@@H](CC)C(=O)[C@@H](C)[C@@H](O)[C@H](C)[C@H]3O[C@@](O)([C@H](CC)C(=O)O)[C@@H](C)[C@H](O)[C@H]3CC)O2)O1 [INOSTAMYCIN]
IC50: 0.5 µg/mL (≈ 0.713 µM)

CC[C@@]1([C@@H]2O[C@@H]([C@H]3O[C@@](O)(CO)[C@H](C)C[C@@H]3C)C[C@@H]2C)CC[C@H]([C@]2(C)CC[C@]3(C[C@H](O)[C@@H](C)[C@@H]([C@@H](C)[C@@H](OC)[C@H](C)C(=O)O)O3)O2)O1
Activity: inactive
